Source: ChEMBL document CHEMBL5055685, “Discovery of the First Potent IDO1/IDO2 Dual Inhibitors: A Promising Strategy for Cancer Immunotherapy” (J Med Chem, 2021)

Columns and labels:
[1] = Inhibition of IDO1/IDO2 in IFNgamma/LPS-stimulated human PBMCs assessed as reduction in kynurenine formation pretreated with compound for 15 mins followed by IFNgamma/LPS stimulation by LC-MS/MS analysis; assay type: tissue-based; conditions: PBMC
[2] = target: T1, Indoleamine 2,3-dioxygenase 1 (Homo sapiens, UniProt P14902); assay: Inhibition of IDO1 (unknown origin) assessed as reduction in kynurenine formation using L-tryptophan as substrate by methylene blue reagent based assay
Target sequence in this assay (P14902 whole entry): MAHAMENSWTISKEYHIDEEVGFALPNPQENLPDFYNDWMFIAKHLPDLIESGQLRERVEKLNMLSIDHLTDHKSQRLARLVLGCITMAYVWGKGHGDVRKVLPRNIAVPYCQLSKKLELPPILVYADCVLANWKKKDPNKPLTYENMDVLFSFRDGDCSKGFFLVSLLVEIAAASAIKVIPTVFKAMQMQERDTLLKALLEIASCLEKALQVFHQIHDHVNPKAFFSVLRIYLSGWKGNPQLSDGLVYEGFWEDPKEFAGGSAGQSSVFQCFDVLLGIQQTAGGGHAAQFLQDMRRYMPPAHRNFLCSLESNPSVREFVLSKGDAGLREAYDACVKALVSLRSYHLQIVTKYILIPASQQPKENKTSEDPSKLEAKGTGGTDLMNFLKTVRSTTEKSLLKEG

[3] = target: T2, Indoleamine 2,3-dioxygenase 2 (Homo sapiens, UniProt Q6ZQW0); assay: Inhibition of IDO2 (unknown origin) assessed as reduction in kynurenine formation using L-tryptophan as substrate by methylene blue reagent based assay
T2 sequence (Q6ZQW0 whole entry): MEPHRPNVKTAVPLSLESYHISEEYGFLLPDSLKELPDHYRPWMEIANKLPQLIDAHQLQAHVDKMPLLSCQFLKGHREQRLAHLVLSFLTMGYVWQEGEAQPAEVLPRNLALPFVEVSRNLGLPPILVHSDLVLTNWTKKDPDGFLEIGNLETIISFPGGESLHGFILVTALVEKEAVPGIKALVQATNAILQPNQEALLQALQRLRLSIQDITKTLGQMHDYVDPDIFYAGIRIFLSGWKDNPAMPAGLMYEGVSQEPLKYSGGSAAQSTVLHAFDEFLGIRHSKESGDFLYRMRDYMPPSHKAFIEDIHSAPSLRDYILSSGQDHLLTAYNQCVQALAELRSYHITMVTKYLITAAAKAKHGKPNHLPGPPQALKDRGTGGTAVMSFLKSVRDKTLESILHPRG

[4] = target: T1, Indoleamine 2,3-dioxygenase 1; assay: Inhibition of IDO1 (unknown origin) assessed as reduction in kynurenine formation using L-tryptophan as substrate by methylene blue reagent based assay relative to control; parameters: concentration or dose not given beside the values; conditions: concentration not given here
Target sequence in this assay (P14902 whole entry, looked up): as the sequence (P14902 whole entry) above

[5] = target: T3, Indoleamine 2,3-dioxygenase 2 (Homo sapiens) (UniProt Q6ZQW0); assay: Inhibition of IDO2 (unknown origin) assessed as reduction in kynurenine formation using L-tryptophan as substrate by methylene blue reagent based assay relative to control; parameters: concentration or dose not given beside the values; conditions: concentration not given here
T3 sequence (whole entry): T2 sequence (Q6ZQW0 whole entry)

[6] = target: T1, Indoleamine 2,3-dioxygenase 1; assay: Inhibition of IDO1 in IFNgamma-stimulated human HeLa cells assessed as reduction in kynurenine formation measured after 48 hrs by spectrophotometry
Target sequence in this assay (P14902 whole entry): as the sequence (P14902 whole entry) above

[7] = target: T1, Indoleamine 2,3-dioxygenase 1
Target sequence in this assay (P14902 whole entry): as the sequence (P14902 whole entry) above

| Structure (SMILES) | IC50 [2] [nM] | IC50 [3] [nM] | inhibition [4] [%] | inhibition [5] [%] | also measured |
| --- | --- | --- | --- | --- | --- |
| CCOC(=O)N1CCC2(CC1)C[C@H](NC(=O)c1cccc3cn[nH]c13)c1cc(Br)ccc1O2 |  |  |  |  | IC50 [1]: 5.4 nM |
| CC(C)CC(C)(O)c1cn(CCNc2nonc2/C(=N/O)Nc2ccc(F)c(Br)c2)nn1 (stereo not drawn) | 51 | 689 |  |  |  |
| OCCCCc1cn(CCNc2nonc2/C(=N/O)Nc2ccc(F)c(Br)c2)nn1 | 80 | 1080 |  |  |  |
| O/N=C(\Nc1ccc(F)c(Br)c1)c1nonc1NCCn1cc(-c2cccc(O)c2)nn1 |  |  | 38 | 13 | IC50 [6]: 13.6 nM |
| C[C@]1([C@H](O)C[C@H]2c3c(F)cccc3-c3cncn32)CC[C@H](O)CC1 |  |  |  |  | IC50 [7]: 7 nM |
| CCC(C)(O)c1cn(CCNc2nonc2/C(=N/O)Nc2ccc(F)c(Br)c2)nn1 (stereo not drawn) | 53 | 958 |  |  |  |
| O/N=C(\Nc1ccc(F)c(Br)c1)c1nonc1NCCn1cc(-c2ccccc2)nn1 |  |  | 17 | 4 |  |

Now from value to compound, other results behind:

| IC50 [2] [nM] | IC50 [3] [nM] | inhibition [4] [%] | inhibition [5] [%] | Structure (SMILES) | also measured |
| --- | --- | --- | --- | --- | --- |
| 115 | 726 |  |  | CC(C)(O)c1cn(CCNc2nonc2/C(=N/O)Nc2ccc(F)c(Br)c2)nn1 |  |
| 176 | 1170 |  |  | CC(C)(OCCO)c1cn(CCNc2nonc2/C(=N/O)Nc2ccc(F)c(Br)c2)nn1 |  |
|  |  | 8 | 15 | COc1ccc(-c2cn(CCNc3nonc3/C(=N/O)Nc3ccc(F)c(Br)c3)nn2)cc1 |  |
| 134 | 930 |  |  | CC(OCCO)c1cn(CCNc2nonc2/C(=N/O)Nc2ccc(F)c(Br)c2)nn1 (stereo not drawn) |  |
|  |  | 37 | 10 | O/N=C(\Nc1ccc(F)c(Br)c1)c1nonc1NCCn1cc(C2CC2)nn1 |  |
